# Measurements as given in US20080063628A1, “METHODS TO PROMOTE CELL DIFFERENTIATION” (priority 2006, published 2008).
# How the values were obtained:
# Test in all cases: 6 hour trichostatin A treatment, gene expression by RT-PCR (Example 10)
# Format in all cases: cell-based, human
# [1] = test system: late passage (P11) pancreatic-derived stromal cell line; conditions: for HNF-3 beta gene expression / Insulin gene expression / Pdx-1 gene expression / glucagon gene expression: 5 μM for 6 h then removed
# Description: (§1) Amniotic fluid derived cells or pancreas-derived cells were seeded into 24-well tissue culture plates at a density of 5000/cm^2 and cultured in AMNIOMAX (Invitrogen) or DMEM with 10% FBS respectively under standard cell culture conditions until confluency was reached. Upon reaching confluency, amniotic fluid derived cells were treated with 1.25 μM trichostatin A and pancreas-derived stromal cells were treated with 5.0 μM trichostatin A. The media was changed 6 hours following the addition of trichostatin A and cultures were maintained for the remainder of the experiment. Several cell lines obtained from amniotic fluid (see Example 14) and pancreas (see Example 13) were tested.
# (§2) RNA samples were obtained at the time the trichostatin A was removed and 24 hours from the start of the experiment. The culture media was removed and cells were washed with PBS then collected in RLT Lysis Buffer with β-mercaptoethanol (Qiagen). RNA was purified using the RNeasy Mini Kit (Qiagen) and RNA quantity and quality was determined using a spectrophotometer. cDNA was made using the iScript cDNA synthesis kit (BioRad). Human pancreas cDNA was included as a control. Results were normalized against GAPDH expression levels.
# (§3) The expression levels of Sox17, HNF-3 beta, Pdx-1, Insulin, and Gata-1 were analyzed in amniotic-derived cells while the expression levels of glucagon, insulin, PDX-1 and HNF-3 beta were analyzed in pancreas-derived cells. 20 ng of cDNA was used in each RT-PCR reaction, which was performed on the Applied Biosystems 7500, according to the methods described in Example 15. Data was analyzed using the accompanying software.
# (§4) Real-time PCR amplifcation and quantitative analysis. Unless otherwise stated, all reagents were purchased from Applied Biosystems. Real-time PCR reactions were performed using the ABI PRISM™ 7500 Sequence Detection System. TAQMAN™ FAST UNIVERSAL PCR MASTER MIX™ (ABI, CA) was used with 20 ng of reverse transcribed RNA in a total reaction volume of 20 μl. Each cDNA sample was run in duplicate to allow correction of pipetting errors. Primers and FAM-labeled TAQMAN™ probes were used at concentrations of 200 nM. The level of expression for each target gene was normalized using the pre-developed Applied Biosystem's human glyceraldehyde-3-phosphate dehydrogenase (GAPDH) endogenous control kit. Primers and probes were designed using either ABI PRISM PRIMER EXPRESS™ software or a pre-developed ABI gene analysis kit. For each gene, either one of the primers or the probe were designed to be exon-boundary spanning. This eliminated the possibility of the primers/probe binding to any genomic DNA present. The primer and probe sets are listed as follows: Pdx-1 (Hs00426216), Insulin (Hs00355773), glucagon (Hs00174967), and FoxA2 (HNF 3-beta) (Hs00232764). The remaining primers were designed using the PRIMERS program (ABI, CA). After an initial 95° C. incubation for 20 sec, samples were cycled 40 times in two stages: a denaturation step at 95° C. for 3 sec, followed by an annealing/extension step at 60° C. for 30 sec.
# (§5) For each primer/probe set, a cycle time value was determined as the cycle number at which the fluorescence intensity of the PCR reaction reached a specific value in the middle of the exponential region of amplification. An increase in expression of a gene corresponded to a decrease in the number of cycles required for the fluorescence intensity to reach this value.
# [2] = test system: early passage (P5) pancreatic-derived stromal cell line; conditions: for HNF-3 beta gene expression / Insulin gene expression / Pdx-1 gene expression / glucagon gene expression: 5 μM for 6 h then removed
# Description: as §1, §2, §3, §4, §5
# [3] = test system: amniotic fluid-derived cell line; conditions: for Gata1 gene expression / HNF-3 beta gene expression / Insulin gene expression / Pdx-1 gene expression / sox17 gene expression: 1.25 μM for 6 h then removed
# Description: as §1, §2, §3, §4, §5
# [4] = test system: second amniotic fluid-derived cell line; conditions: for Gata1 gene expression / HNF-3 beta gene expression / Insulin gene expression / Pdx-1 gene expression / sox17 gene expression: 1.25 μM for 6 h then removed
# Description: as §1, §2, §3, §4, §5
# [5] = 5.0 μM, following 6 h treatment
compound,measurement,setting,value
CC(/C=C/C(=O)NO)=C\[C@@H](C)C(=O)c1ccc(N(C)C)cc1 [trichostatin A],HNF-3 beta gene expression,[1]; 6 hrs,+ (detectable between 35 and 40 cycles by RT-PCR)
same,Insulin gene expression,[1]; 6 hrs,nd (not detectable at >40 cycles by RT-PCR)
same,Pdx-1 gene expression,[1]; 6 hrs,+ (detectable between 35 and 40 cycles by RT-PCR)
same,glucagon gene expression,[1]; 6 hrs,+ (detectable between 35 and 40 cycles by RT-PCR)
same,HNF-3 beta gene expression,[1]; 24 hrs,nd (not detectable at >40 cycles by RT-PCR)
same,Insulin gene expression,[1]; 24 hrs,nd (not detectable at >40 cycles by RT-PCR)
same,Pdx-1 gene expression,[1]; 24 hrs,nd (not detectable at >40 cycles by RT-PCR)
same,glucagon gene expression,[1]; 24 hrs,+ (detectable between 35 and 40 cycles by RT-PCR)
same,HNF-3 beta RT-PCR detection cycle,[1]; [5],36 cycles
same,Pdx-1 RT-PCR detection cycle,[1]; [5],37 cycles
same,glucagon RT-PCR detection cycle,[1]; [5],37 cycles
same,glucagon RT-PCR detection cycle,"[1]; 5.0 μM, following the removal",35 cycles
same,HNF-3 beta gene expression,[2]; 6 hrs,+++ (detectable at less than 35 cycles by RT-PCR with SE less than 0.9)
same,Insulin gene expression,[2]; 6 hrs,nd (not detectable at >40 cycles by RT-PCR)
same,Pdx-1 gene expression,[2]; 6 hrs,+ (detectable between 35 and 40 cycles by RT-PCR)
same,glucagon gene expression,[2]; 6 hrs,+ (detectable between 35 and 40 cycles by RT-PCR)
same,HNF-3 beta gene expression,[2]; 24 hrs,nd (not detectable at >40 cycles by RT-PCR)
same,Insulin gene expression,[2]; 24 hrs,+++ (detectable at less than 35 cycles by RT-PCR with SE less than 0.9)
same,Pdx-1 gene expression,[2]; 24 hrs,nd (not detectable at >40 cycles by RT-PCR)
same,glucagon gene expression,[2]; 24 hrs,+ (detectable between 35 and 40 cycles by RT-PCR)
same,Insulin RT-PCR detection cycle,"[2]; 5.0 μM, after trichostatin A was removed from the media",32 cycles
same,HNF-3 beta RT-PCR detection cycle,[2]; [5],35 cycles
same,glucagon RT-PCR detection cycle,[2]; [5],37 cycles
same,Pdx-1 RT-PCR detection cycle,"[2]; 5.0 μM, following treatment (38 before treatment)",35 cycles
same,Gata1 gene expression,[3]; 6 hrs,nd (not detectable at >40 cycles by RT-PCR)
same,HNF-3 beta gene expression,[3]; 6 hrs,+++ (detectable at less than 35 cycles by RT-PCR with SE less than 0.9)
same,Insulin gene expression,[3]; 6 hrs,nd (not detectable at >40 cycles by RT-PCR)
same,Pdx-1 gene expression,[3]; 6 hrs,+ (detectable between 35 and 40 cycles by RT-PCR)
same,sox17 gene expression,[3]; 6 hrs,+++ (detectable at less than 35 cycles by RT-PCR with SE less than 0.9)
same,Gata1 gene expression,[3]; 24 hrs,nd (not detectable at >40 cycles by RT-PCR)
same,HNF-3 beta gene expression,[3]; 24 hrs,+++ (detectable at less than 35 cycles by RT-PCR with SE less than 0.9)
same,Insulin gene expression,[3]; 24 hrs,nd (not detectable at >40 cycles by RT-PCR)
same,Pdx-1 gene expression,[3]; 24 hrs,nd (not detectable at >40 cycles by RT-PCR)
same,sox17 gene expression,[3]; 24 hrs,+++ (detectable at less than 35 cycles by RT-PCR with SE less than 0.9)
same,Pdx-1 RT-PCR detection cycle,"[3]; 1.25 μM, after treatment (37 before treatment)",35 cycles
same,HNF-3 beta RT-PCR detection cycle,"[3]; 1.25 μM, following 6 h treatment",32 cycles
same,HNF-3 beta RT-PCR detection cycle,"[3]; 1.25 μM, following the wash",35 cycles
same,Gata1 gene expression,[4]; 6 hrs,nd (not detectable at >40 cycles by RT-PCR)
same,HNF-3 beta gene expression,[4]; 6 hrs,+++ (detectable at less than 35 cycles by RT-PCR with SE less than 0.9)
same,Insulin gene expression,[4]; 6 hrs,nd (not detectable at >40 cycles by RT-PCR)
same,Pdx-1 gene expression,[4]; 6 hrs,+++ (detectable at less than 35 cycles by RT-PCR with SE less than 0.9)
same,sox17 gene expression,[4]; 6 hrs,+++ (detectable at less than 35 cycles by RT-PCR with SE less than 0.9)
same,Gata1 gene expression,[4]; 24 hrs,nd (not detectable at >40 cycles by RT-PCR)
same,HNF-3 beta gene expression,[4]; 24 hrs,+ (detectable between 35 and 40 cycles by RT-PCR)
same,Insulin gene expression,[4]; 24 hrs,nd (not detectable at >40 cycles by RT-PCR)
same,Pdx-1 gene expression,[4]; 24 hrs,nd (not detectable at >40 cycles by RT-PCR)
same,sox17 gene expression,[4]; 24 hrs,+++ (detectable at less than 35 cycles by RT-PCR with SE less than 0.9)
same,HNF-3 beta RT-PCR detection cycle,"[4]; 1.25 μM, 6 hours of treatment",31 cycles
same,Pdx-1 RT-PCR detection cycle,"[4]; 1.25 μM, 6 hours of treatment",35 cycles
same,HNF-3 beta RT-PCR detection cycle,"[4]; 1.25 μM, following removal",35 cycles
